From ChEMBL document CHEMBL5226390, “Synthesis and Structure-Activity Analysis of Icaritin Derivatives as Potential Tumor Growth Inhibitors of Hepatocellular Carcinoma Cells” (J Nat Prod, 2023)

Experiments:
Type in all cases: functional, cell-based
HepG2 = assay: Antiproliferative activity against human HepG2 cells assessed as reduction in cell viability incubated for 48 hrs by MTT assay; settings: HepG2, 48 h
SMMC-7721 = assay: Antiproliferative activity against human SMMC-7721 cells assessed as reduction in cell viability incubated for 48 hrs by MTT assay
Hep 3B2 = assay: Antiproliferative activity against human Hep3B cells assessed as reduction in cell viability incubated for 48 hrs by MTT assay
[1] = Homo sapiens, SMMC-7721, 48 h, read-out: IC50

COc1ccc(-c2oc3c(CC=C(C)C)c(OCCCN)cc(O)c3c(=O)c2O[C@H]2O[C@H](C)[C@@H](O)[C@H](O)[C@@H]2O)cc1
IC50 (HepG2): > 10 µM | IC50 (SMMC-7721; smmc-7721): Not Active | IC50 (Hep 3B2): > 10 µM

CCN(CC)CCCCOc1cc(O)c2c(=O)c(O[C@H]3O[C@H](C)[C@@H](O)[C@H](O)[C@@H]3O)c(-c3ccc(OC)cc3)oc2c1CC=C(C)C
IC50 (HepG2): 3.8 µM | IC50 (SMMC-7721; [1]): 6.4 µM | IC50 (Hep 3B2): 5.4 µM

COc1ccc(-c2oc3c(CC=C(C)C)c(OCCN4CCC(C)CC4)cc(O)c3c(=O)c2O[C@H]2O[C@H](C)[C@@H](O)[C@H](O)[C@@H]2O)cc1
IC50 (HepG2): > 10 µM | IC50 (SMMC-7721; smmc-7721): Not Active | IC50 (Hep 3B2): > 10 µM

COc1ccc(-c2oc3c(CC=C(C)C)c(OCCCCN4CCC(N5CCCCC5)CC4)cc(O)c3c(=O)c2O[C@H]2O[C@H](C)[C@@H](O)[C@H](O)[C@@H]2O)cc1
IC50 (HepG2): 7.6 µM | IC50 (SMMC-7721; [1]): 6.4 µM | IC50 (Hep 3B2): 3.9 µM

COc1ccc(-c2oc3c(CC=C(C)C)c(OCCOCCN4CCNCC4)cc(O)c3c(=O)c2O[C@H]2O[C@H](C)[C@@H](O)[C@H](O)[C@@H]2O)cc1
IC50 (HepG2): > 10 µM | IC50 (SMMC-7721; smmc-7721): Not Active | IC50 (Hep 3B2): > 10 µM

COc1ccc(-c2oc3c(CC=C(C)C)c(OCCOCCN4CCOCC4)cc(O)c3c(=O)c2O[C@H]2O[C@H](C)[C@@H](O)[C@H](O)[C@@H]2O)cc1
IC50 (HepG2): > 10 µM | IC50 (SMMC-7721; smmc-7721): Not Active | IC50 (Hep 3B2): > 10 µM

COc1ccc(-c2oc3c(CC=C(C)C)c(OCCCC(=O)NO)cc(O)c3c(=O)c2O[C@H]2O[C@H](C)[C@@H](O)[C@H](O)[C@@H]2O)cc1
IC50 (HepG2): > 10 µM | IC50 (SMMC-7721; [1]): > 10 µM | IC50 (Hep 3B2): > 10 µM

COc1ccc(-c2oc3c(CC=C(C)C)c(OC[C@H](O)CN(C)C)cc(O)c3c(=O)c2O[C@H]2O[C@H](C)[C@@H](O)[C@H](O)[C@@H]2O)cc1
IC50 (HepG2): > 10 µM | IC50 (SMMC-7721; [1]): > 10 µM | IC50 (Hep 3B2): > 10 µM

COc1ccc(-c2oc3c(CC=C(C)C)c(OCCN)cc(O)c3c(=O)c2O[C@H]2O[C@H](C)[C@@H](O)[C@H](O)[C@@H]2O)cc1
IC50 (HepG2): > 10 µM | IC50 (SMMC-7721; smmc-7721): Not Active | IC50 (Hep 3B2): > 10 µM

COc1ccc(-c2oc3c(CC=C(C)C)c(OCCCCC(=O)NO)cc(O)c3c(=O)c2O[C@H]2O[C@H](C)[C@@H](O)[C@H](O)[C@@H]2O)cc1
IC50 (HepG2): > 10 µM | IC50 (SMMC-7721; [1]): > 10 µM | IC50 (Hep 3B2): > 10 µM

COc1ccc(-c2oc3c(CC=C(C)C)c(OCCCCCCN4CCCC4)cc(O)c3c(=O)c2O[C@H]2O[C@H](C)[C@@H](O)[C@H](O)[C@@H]2O)cc1
IC50 (HepG2): 2.5 µM | IC50 (SMMC-7721; [1]): 4.8 µM | IC50 (Hep 3B2): 7.6 µM

COc1ccc(-c2oc3c(CC=C(C)C)c(OCCCCN)cc(O)c3c(=O)c2O[C@H]2O[C@H](C)[C@@H](O)[C@H](O)[C@@H]2O)cc1
IC50 (HepG2): 4.7 µM | IC50 (SMMC-7721; [1]): > 10 µM | IC50 (Hep 3B2): 4.9 µM

COc1ccc(-c2oc3c(CC=C(C)C)c(OCCCCN(C)C)cc(O)c3c(=O)c2O[C@H]2O[C@H](C)[C@@H](O)[C@H](O)[C@@H]2O)cc1
IC50 (HepG2): > 10 µM | IC50 (SMMC-7721; smmc-7721): Not Active | IC50 (Hep 3B2): 8.7 µM

COc1ccc(-c2oc3c(CC=C(C)C)c(OCCCN4CCOCC4)cc(O)c3c(=O)c2O[C@H]2O[C@H](C)[C@@H](O)[C@H](O)[C@@H]2O)cc1
IC50 (HepG2): 7.4 µM | IC50 (SMMC-7721; [1]): > 10 µM | IC50 (Hep 3B2): 8 µM

COc1ccc(-c2oc3c(CC=C(C)C)c(OCCOCCN4CCC(O)CC4)cc(O)c3c(=O)c2O[C@H]2O[C@H](C)[C@@H](O)[C@H](O)[C@@H]2O)cc1
IC50 (HepG2): > 10 µM | IC50 (SMMC-7721; smmc-7721): Not Active | IC50 (Hep 3B2): > 10 µM

COc1ccc(-c2oc3c(CC=C(C)C)c(OCCCCN4CCCC4)cc(O)c3c(=O)c2O[C@H]2O[C@H](C)[C@@H](O)[C@H](O)[C@@H]2O)cc1
IC50 (HepG2): 3 µM | IC50 (SMMC-7721; [1]): > 10 µM | IC50 (Hep 3B2): 4 µM

COc1ccc(-c2oc3c(CC=C(C)C)c(OCCCN4CCC(C)CC4)cc(O)c3c(=O)c2O[C@H]2O[C@H](C)[C@@H](O)[C@H](O)[C@@H]2O)cc1
IC50 (HepG2): > 10 µM | IC50 (SMMC-7721; smmc-7721): Not Active | IC50 (Hep 3B2): > 10 µM

COc1ccc(-c2oc3c(CC=C(C)C)c(OCCCN4CCNCC4)cc(O)c3c(=O)c2O[C@H]2O[C@H](C)[C@@H](O)[C@H](O)[C@@H]2O)cc1
IC50 (HepG2): > 10 µM | IC50 (SMMC-7721; smmc-7721): Not Active | IC50 (Hep 3B2): 3.8 µM
